Experimental data as given in patent US20240425464A1, “Substituted Monohydrazides as Potent Antifungal Agents” (University of Kentucky Research Foundation, priority 2023, published 2024).
Converted amounts (≈) assume the structure as drawn. Where two headings read alike, the source gives them in different places.

Test system: Aspergillus fumigatus NRRL 163 (Q)
Experiment: MIC determination by in vitro antifungal assay
Type: cell-based
Settings: strain Q = A. fumigatus NRRL 163
Summary of the method: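 Twofold dilutions spanning 0.06–31.3 μg/mL were incubated with fungi for 48 h at 35° C in MOPS-buffered RPMI 1640 (pH 7.0), following modified CLSI M27-A3 and M38-A2 methods. Yeast cells were grown overnight in YPD, set to OD600 0.12 (~1×10^6 CFU/mL), then diluted 1:100.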

[1] = Aspergillus fumigatus, NRRL163, read-out: MIC

Row | Structure (SMILES) | MIC | MIC [1]
1 | O=C(NNc1ccc(Cl)cc1)c1ccccn1 [Compound 2e] | >31.3 μg/mL^−1 | –
2 | O=C(NNc1cccc(Cl)c1)c1ccccn1 [Compound 2b] | >31.3 μg/mL^−1 | –
3 | COc1cccc(NNC(=O)c2ccc(Br)cn2)c1 [Compound 4c] | – | 15.6 µg/mL (≈ 48.4 µM)
4 | COc1cccc(NNC(=O)c2cnccn2)c1 [Compound 9c] | – | 15.6 µg/mL (≈ 63.9 µM)
5 | O=C(NNc1cccc(F)c1)c1ccccn1 [Compound 2a] | >31.3 μg/mL^−1 | –
6 | COc1ccc(NNC(=O)c2ncc(F)cc2F)cc1 [Compound 7f] | – | 31.3 µg/mL (≈ 112 µM)
7 | C[C@@H]1[C@H](O)[C@@H](C)/C=C/C=C/C=C/C=C/C=C/C=C/C=C/[C@H](O[C@@H]2O[C@H](C)[C@@H](O)[C@H](N)[C@@H]2O)C[C@@H]2O[C@](O)(C[C@@H](O)C[C@@H](O)[C@H](O)CC[C@@H](O)C[C@@H](O)CC(=O)O[C@H]1C)C[C@H](O)[C@H]2C(=O)O [AmB, amphotericin B, reference compound] | 0.98 μg/mL^−1 | –
8 | COc1ccc(NNC(=O)c2nc(F)ccc2F)cc1 [Compound 8f] | – | 31.3 µg/mL (≈ 112 µM)
9 | COc1ccc(NNC(=O)c2ccccn2)cc1 [Compound 2f] | – | > 31.3 µg/mL
10 | O=C(NNc1cccc(F)c1)c1ncc(F)cc1F [Compound 7a] | >31.3 μg/mL^−1 | –
11 | O=C(NNc1cccc(F)c1)c1ccc(F)cn1 [Compound 3a] | >31.3 μg/mL^−1 | –
12 | COc1ccc(NNC(=O)c2ccc(F)cc2F)cc1 [Compound 1f] | – | > 31.3 µg/mL
13 | COc1cccc(NNC(=O)c2ccc(F)cn2)c1 [Compound 3c] | >31.3 μg/mL^−1 | –
14 | O=C(NNc1cc(F)cc(F)c1)c1ccccn1 [Compound 2i] | – | ≤ 0.06 µg/mL
15 | O=C(NNc1ccc(F)cc1F)c1cnccn1 [Compound 9g] | – | > 31.3 µg/mL
16 | COc1cccc(NNC(=O)c2ccccn2)c1 [Compound 2c] | 7.8 μg/mL^−1 | –

Row | Structure (SMILES) | MIC | MIC [1]
17 | COc1ccc(NNC(=O)c2ccc(F)cn2)cc1 [Compound 3f] | >31.3 μg/mL^−1 | –
18 | O=C(NNc1cc(F)ccc1F)c1ccccn1 [Compound 2h] | – | > 31.3 µg/mL
19 | O=C(NNc1ccc(F)cc1F)c1ccccn1 [Compound 2g] | – | > 31.3 µg/mL
20 | O=C(NNc1cccc(F)c1)c1ccc(F)cc1F [Compound 1a] | >31.3 μg/mL^−1 | –
21 | O=C(NNc1cccc(F)c1)c1nc(F)ccc1F [Compound 8a] | >31.3 μg/mL^−1 | –
22 | O=C(NNc1ccc(F)cc1)c1cccc(F)n1 [Compound 5d] | – | 31.3 µg/mL (≈ 126 µM)
23 | COc1ccc(NNC(=O)c2cccc(F)n2)cc1 [Compound 5f] | – | > 31.3 µg/mL
24 | O=C(NNc1ccc(F)cc1)c1ccccn1 [Compound 2d] | – | 31.3 µg/mL (≈ 135 µM)
25 | O=C(NNc1cccc(F)c1)c1cnccn1 [Compound 9a] | >31.3 μg/mL^−1 | –
26 | O=C(NNc1ccc(F)cc1)c1ncc(F)cc1F [Compound 7d] | – | > 31.3 µg/mL
27 | O=C(NNc1cc(Cl)cc(Cl)c1)c1ccccn1 [Compound 2j] | – | > 31.3 µg/mL
28 | O=C(NNc1cccc(F)c1)c1ccc(Br)cn1 [Compound 4a] | >31.3 μg/mL^−1 | –
29 | O=C(NNc1ccc(F)cc1)c1ccc(F)cc1F [Compound 1d] | – | > 31.3 µg/mL
30 | O=C(NNc1ccc(F)cc1)c1nc(F)ccc1F [Compound 8d] | – | 31.3 µg/mL (≈ 117 µM)
31 | COc1ccc(NNC(=O)c2cnccn2)cc1 [Compound 9f] | – | 31.3 µg/mL (≈ 128 µM)
32 | O=C(NNc1cccc(Cl)c1)c1cnccn1 [Compound 9b] | – | > 31.3 µg/mL
